In patent US20090307791A1, “CALCIUM-ACTIVATED CHLORIDE CHANNEL AND METHODS OF USE THEREOF” (priority 2008, published 2009):

Key:
CaCC = test: Ca2+ evoked current in A23187 treated Xenopus oocytes; type: cell-based; conditions: Ca2+ 5 mM
Description: (§1) For experiments involving TMEM16 constructs, capped cRNA was in vitro transcribed from linearized plasmids using the mMessage mMachine kit (Ambion). Female Axolotls and Xenopus laevis were purchased from the Ambystoma Genetic Stock Center and Nasco respectively. Oocytes from these animals were defoliculated by treatment with collagenase prepared as described. Usually 5 ng of cRNA (50 ng for mRNA) was injected into defolliculated oocytes. Oocytes were kept at 17° C. in ND96 solution (96 mM NaCl, 2 mM KCl, 1.8 mM CaCl2, 1 mM MgCl2, 10 mM HEPES [pH 7.4]). Two-electrode voltage-clamp measurements were performed at room temperature 2-4 days after injection using a GeneClamp500 amplifier (Axon Instruments) and pClamp 8.0 software (Axon Instruments). Oocytes used in photolysis experiments were injected with […] of 100 μM caged inositol trisphosphate [myo-inositol 1,4,5-trisphosphate, P4(5)-1-(2-nitrophenyl)ethyl ester] (Molecular Probes) at least 1 h before recording, and kept in dark until usage. For flash photolysis light derived from a mercury arc lamp was guided by a fused silica fiber (Oriel) to the top of oocytes in the recording chamber. Flash time was controlled via electronic shutter.
FIGS. 2A-f. Carbachol and Ca^2+ evoked current responses in different oocytes. […]

xTMEM16A = test: NFA inhibition of IP3-induced CaCC currents, two electrode voltage clamp, Axolotl oocytes injected with xTMEM16A cRNA; type: cell-based; conditions: Axolotl oocytes expressing xTMEM16A, 30 μM NFA, long lasting current
Description: as §1, with “(Molecular Probes) at least 1 h before recording, and kept in dark until usage. For flash photolysis light derived from a mercury arc lamp was guided by a fused silica fiber (Oriel) to the top of oocytes in the recording chamber. Flash time was controlled via electronic shutter.” left out
(§2) Currents were usually recorded in Ca^2+ free ND96 solution (96 mM NaCl, 2 mM KCl, 3 mM MgCl2, 10 mM HEPES [pH 7.4]). […] The permeability ratios were calculated from shifts in reversal potential ΔErev using the Goldman-Hodgkin-Katz Equation in the form: PX/PCl=(γ·[Cl^−](1)−[Cl^−](2))/[X^−](2) were [Cl^−](1), [Cl^−](2) and [X^−](2) are the external Cl^− and X^− concentration before and after solution exchange. […]

endogenous CaCCs = test: NFA inhibition of IP3-induced Ca2+ activated Cl- currents, two electrode voltage clamp, Xenopus oocytes; type: cell-based, Xenopus laevis
Description: as §1
as §2, with “7.4]). Solutions for Cl^−/gluconate replacement experiments were prepared from appropriate mixtures of solutions containing high Cl^− (95 mM NaCl, 1 mM KCl, 2 mM MgCl2, 10 mM HEPES [pH 7.4]) and solutions containing high gluconate (95 mM NaGluconate, 1 mM KCl, 2 mM MgCl2, 10 mM HEPES [pH 7.4]). In other permeability experiments solutions containing 90 NaX, 2 KCl, 4 MgCl, 10 mM HEPES [pH 7.4] with X=Cl^−, Br^−, I^− or SCN^− were used.” for “7.4]).”

Compound	CaCC activation by A23187 then high calcium solution (CaCC)	effect on amplitude of a CaCC current of long duration (xTMEM16A)	effect on decay of the residual CaCC current (endogenous CaCCs; 30 μM NFA)	effect on IP3-induced CaCC current amplitude (endogenous CaCCs; 30 μM NFA, 1 min perfusion, ND96)	reversibility after removal of NFA (endogenous CaCCs; after 5 min ND96 wash)
CNc1ccc2oc(C[C@H]3O[C@@]4(CC[C@H]3C)O[C@H]([C@H](C)C(=O)c3ccc[nH]3)[C@H](C)C[C@H]4C)nc2c1C(=O)O [A23187]	resulted in CaCC activation				
O=C(O)c1cccnc1Nc1cccc(C(F)(F)F)c1 [NFA, niflumic acid]		barely reduced in amplitude	slowed the decay of the residual current	reduced the IP3-induced CaCC current	restored both the amplitude and the kinetics of the CaCC current
